In US10736883B2, “Triazole furan compounds as agonists of the APJ receptor” (AMGEN INC., priority 2016, dated 2020) one finds EC50 data, which are given here for 11 compounds.

Chain of APJ receptor (P35414 whole entry): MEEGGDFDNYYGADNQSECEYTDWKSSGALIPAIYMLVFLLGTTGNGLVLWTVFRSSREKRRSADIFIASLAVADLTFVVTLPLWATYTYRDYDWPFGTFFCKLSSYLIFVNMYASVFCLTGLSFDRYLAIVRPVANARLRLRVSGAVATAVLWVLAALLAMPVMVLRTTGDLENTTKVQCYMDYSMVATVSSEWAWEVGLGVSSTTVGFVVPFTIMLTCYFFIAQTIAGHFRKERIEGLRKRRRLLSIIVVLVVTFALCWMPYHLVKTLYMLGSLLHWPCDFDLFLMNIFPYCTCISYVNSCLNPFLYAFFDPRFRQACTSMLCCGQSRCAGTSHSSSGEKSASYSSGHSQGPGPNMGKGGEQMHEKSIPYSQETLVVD

The assay addresses APJ receptor (Homo sapiens (Human), UniProt P35414). Nature of the assay: [35S]GTPγS binding assay on membranes from CHO cells stably expressing human APJ receptor. The note with it: membranes of CHO cells stably expressing human APJ receptor, means of several independent experiments, read-out: Activity hAPJ SPA EC50 IP. It is filed as biochemical. On the procedure: The human APJ receptor was cloned by polymerase chain reaction and the gene encoding the receptor was subcloned in pFLAG-CMV™-3 expression vector (Sigma, Saint Louis, Mo. USA) in-house at Amgen. A GTPγS binding assay was performed on membranes prepared from CHO cells stably expressing human APJ receptor. The optimum experimental conditions for the concentrations of GDP, MgCl2, and NaCl in the assay buffer were initially determined. The assay was performed in assay buffer [20 mM HEPES, pH 7.5, 5 mM MgCl2, and 0.1% (w/v) BSA with 200 mM NaCl, 3 μM GDP] and membranes expressing human APJ receptor/well along with WGA PS beads. The reaction was initiated by addition of 0.2 nM [^35S]GTPγS (Perkin Elmer Life and Analytical Sciences, Waltham USA) in the absence or presence of various ligands and incubated at RT for 90 min. Nonspecific binding was determined in the presence of 100 μM GTPγS and was always less than 0.2% of total binding. All the results presented are means of several independent experiments and analyzed by non-linear regression methods using commercially available program Prism (GraphPad, San Diego, Calif.) to obtain EC50 detailed in Table 26.
For the compound `COc1cccc(OC)c1-n1c(NS(=O)(=O)[C@@H](C)Cc2ncc(Cl)cc2C#N)nnc1-c1ccco1` (mixture of isomers) [Example 18.0, (2S)-1-(5-chloro-3-cyano-2-pyridinyl)-N-(4-(2,6-dimethoxyphenyl)-5-(2-furanyl)-4H-1,2,4-triazol-3-yl)-2-propanesulfonamide and (2R)-1-(5-chloro-3-cyano-2-pyridinyl)-N-(4-(2,6-dimethoxyphenyl)-5-(2-furanyl)-4H-1,2,4-triazol-3-yl)-2-propanesulfonamide], the EC50 came to 0.28 nM. Next, `COc1cccc(OC)c1-n1c(NS(=O)(=O)C[C@@H](C)c2ncc(F)cn2)nnc1-c1ccco1` (mixture of isomers) [Example 129.0, (S)-N-(4-(2,6-dimethoxyphenyl)-5-(furan-2-yl)-4H-1,2,4-triazol-3-yl)-2-(5-fluoropyrimidin-2-yl)propane-1-sulfonamide and (R)-N-(4-(2,6-dimethoxyphenyl)-5-(furan-2-yl)-4H-1,2,4-triazol-3-yl)-2-(5-fluoropyrimidin-2-yl)propane-1-sulfonamide]: 3.3 nM; `COc1cccc(OC)c1-n1c(NS(=O)(=O)CCN2C(=O)N(C)CC[C@H]2C)nnc1-c1ccc(C)o1` (mixture of isomers) [Example 160.0, N-(4-(2,6-Dimethoxyphenyl)-5-(5-methyl-2-furanyl)-4H-1,2,4-triazol-3-yl)-2-((6R)-3,6-dimethyl-2-oxotetrahydro-1 (2H)-pyrimidinyl)ethanesulfonamide and N-(4-(2,6-dimethoxyphenyl)-5-(5-methyl-2-furanyl)-4H-1,2,4-triazol-3-yl)-2-((6S)-3,6-dimethyl-2-oxotetrahydro-1(2H)-pyrimidinyl)ethanesulfonamide]: 0.5 nM. For `COc1cccc(OC)c1-n1c(NS(=O)(=O)[C@@H](C)[C@H](O)c2cn(C)cn2)nnc1-c1ccc(C)o1.COc1cccc(OC)c1-n1c(NS(=O)(=O)[C@H](C)[C@@H](O)c2cn(C)cn2)nnc1-c1ccc(C)o1` (mixture of isomers) [Example 301.0, (1R,2S)—N-(4-(2,6-Dimethoxyphenyl)-5-(5-methyl-2-furanyl)-4H-1,2,4-triazol-3-yl)-1-hydroxy-1-(1-methyl-1H-imidazol-4-yl)-2-propanesulfonamide and (1S,2R)—N-(4-(2,6-dimethoxyphenyl)-5-(5-methyl-2-furanyl)-4H-1,2,4-triazol-3-yl)-1-hydroxy-1-(1-methyl-1H-imidazol-4-yl)-2-propanesulfonamide], the half-maximal effective concentration (EC50) was 13 nM. With `COc1ccccc1-n1c(NS(=O)(=O)[C@@H](C)Cc2ncc(F)cn2)nnc1-c1ccco1.COc1ccccc1-n1c(NS(=O)(=O)[C@H](C)Cc2ncc(F)cn2)nnc1-c1ccco1` (mixture of isomers) [Example 310.0, (2S)-1-(5-Fluoro-2-pyrimidinyl)-N-(5-(2-furanyl)-4-(2-methoxyphenyl)-4H-1,2,4-triazol-3-yl)-2-propanesulfonamide and (2R)-1-(5-fluoro-2-pyrimidinyl)-N-(5-(2-furanyl)-4-(2-methoxyphenyl)-4H-1,2,4-triazol-3-yl)-2-propanesulfonamide], the EC50 worked out at 83 nM.

On to `C[C@@H](Cc1ncc(F)cn1)S(=O)(=O)Nc1nnc(-c2ccco2)n1C1CCCCC1.C[C@H](Cc1ncc(F)cn1)S(=O)(=O)Nc1nnc(-c2ccco2)n1C1CCCCC1` (mixture of isomers) [Example 313.0, (2R)—N-(4-Cyclohexyl-5-(2-furanyl)-4H-1,2,4-triazol-3-yl)-1-(5-fluoro-2-pyrimidinyl)-2-propanesulfonamide and (2S)—N-(4-cyclohexyl-5-(2-furanyl)-4H-1,2,4-triazol-3-yl)-1-(5-fluoro-2-pyrimidinyl)-2-propanesulfonamide], for which the EC50 worked out at 230 nM. Next, `C[C@@H](Cc1ncc(F)cn1)S(=O)(=O)Nc1nnc(-c2ccco2)n1-c1cccc2ccccc12` (mixture of isomers) [Example 314.0, (2R)-1-(5-Fluoro-2-pyrimidinyl)-N-(5-(2-furanyl)-4-(1-naphthalenyl)-4H-1,2,4-triazol-3-yl)-2-propanesulfonamide and (2S)-1-(5-fluoro-2-pyrimidinyl)-N-(5-(2-furanyl)-4-(1-naphthalenyl)-4H-1,2,4-triazol-3-yl)-2-propanesulfonamide]: 230 nM; `COc1ccc(-n2c(NS(=O)(=O)[C@@H](C)Cc3ncc(F)cn3)nnc2-c2ccco2)c(OC)c1` (mixture of isomers) [Example 315.0, (2R)—N-(4-(2,4-Dimethoxyphenyl)-5-(2-furanyl)-4H-1,2,4-triazol-3-yl)-1-(5-fluoro-2-pyrimidinyl)-2-propanesulfonamide and (2S)—N-(4-(2,4-dimethoxyphenyl)-5-(2-furanyl)-4H-1,2,4-triazol-3-yl)-1-(5-fluoro-2-pyrimidinyl)-2-propanesulfonamide]: 270 nM; `COc1cccc(OC)c1-n1c(NS(=O)(=O)[C@@H]2C[C@H](O)CN(c3cnc(Cl)c(C#N)c3)C2)nnc1-c1ccc(C)o1` (mixture of isomers) [Example 322.0, (3S,5R)-1-(6-Chloro-5-cyano-3-pyridinyl)-N-(4-(2,6-dimethoxyphenyl)-5-(5-methyl-2-furanyl)-4H-1,2,4-triazol-3-yl)-5-hydroxy-3-piperidinesulfonamide and (3R,5S)-1-(6-chloro-5-cyano-3-pyridinyl)-N-(4-(2,6-dimethoxyphenyl)-5-(5-methyl-2-furanyl)-4H-1,2,4-triazol-3-yl)-5-hydroxy-3-piperidinesulfonamide]: 0.2 nM. `COc1ccnc(N2C[C@H](O)C[C@H](S(=O)(=O)Nc3nnc(-c4ccc(C)o4)n3-c3c(OC)cccc3OC)C2)n1` (mixture of isomers) [Example 324.0, (3S,5R)—N-(4-(2,6-Dimethoxyphenyl)-5-(5-methyl-2-furanyl)-4H-1,2,4-triazol-3-yl)-5-hydroxy-1-(4-methoxy-2-pyrimidinyl)-3-piperidinesulfonamide and (3R,5S)—N-(4-(2,6-dimethoxyphenyl)-5-(5-methyl-2-furanyl)-4H-1,2,4-triazol-3-yl)-5-hydroxy-1-(4-methoxy-2-pyrimidinyl)-3-piperidinesulfonamide]: the EC50 amounted to 0.21 nM. Next, `COc1cccc(OC)c1-n1c(NS(=O)(=O)[C@H]2C[C@@H](O)CN(c3ncc(F)cc3C#N)C2)nnc1-c1ccc(C)o1` (mixture of isomers) [Example 330.0, (3S,5R)-1-(3-Cyano-5-fluoro-2-pyridinyl)-N-(4-(2,6-dimethoxyphenyl)-5-(5-methyl-2-furanyl)-4H-1,2,4-triazol-3-yl)-5-hydroxy-3-piperidinesulfonamide and (3R,5S)-1-(3-cyano-5-fluoro-2-pyridinyl)-N-(4-(2,6-dimethoxyphenyl)-5-(5-methyl-2-furanyl)-4H-1,2,4-triazol-3-yl)-5-hydroxy-3-piperidinesulfonamide]: 0.43 nM.
